The source of these data is paper PMC5365648, “Pharmacokinetics of the Novel Echinocandin CD101 in Multiple Animal Species” (Antimicrobial Agents and Chemotherapy, 2017).

Starred links: 1 amine or outer side, 2 acyl side, 3 side chain; linkers in the order of their positions; H or OH if unused. Positions of bridges follow the written chain, without caps; N, C: chain ends. Non-standard residues stand in square brackets, D forms with d. Residues, ends and D or L forms follow the SMILES beside them. *: point of attachment. Orn(4R-OH,5R-OCH2CH2NMe3+) = C[N+](C)(C)CCO[C@@H](N[*:3])[C@H](O)C[C@H](N[*:1])C(=O)[*:2]; pTerphenylCO(4''-OnC5H11) = CCCCCOc1ccc(-c2ccc(-c3ccc(C(=O)*)cc3)cc2)cc1; hTyr(3S-OH,4S-OH) = N[C@H](C(=O)O)[C@H](O)[C@@H](O)c1ccc(O)cc1; Pro(3S-OH,4S-Me) = C[C@H]1CN[C@H](C(=O)O)[C@H]1O; Hyp = O=C(O)[C@@H]1C[C@@H](O)CN1

The nature of series [1]: Mouse pharmacokinetics, i.p. injection. The following applies: in vivo, ip, female ICR (CD-1) mice, plasma, LC-MS/MS, noncompartmental from mean profile, n = 3/time point. On the procedure: A single 1-mg/kg dose of CD101 or anidulafungin was administered by slow i.v. bolus (∼2 min) to male ICR (CD-1) mice (n = 3/group/time point). Blood samples (via cardiac puncture) were collected for plasma processing predose and at 0.083 (5 min), 0.5, 1, 4, 8, 24, 48, and 72 h postdose. PK profiles were generated based on mean results from the three animals sampled at each time point. In another study, a single 1-, 4-, or 16-mg/kg dose of CD101 was administered by i.p. injection to female ICR (CD-1) mice (n = 3/time point/dose), and blood samples (via cardiac puncture) were drawn for plasma processing at 1, 3, 6, 12, 24, 48, 72, and 96 h postdose.
(§1) For each of the pharmacokinetic studies, whole-blood samples (K3EDTA as anticoagulant) were collected and centrifuged within 30 min of collection. The resulting plasma was harvested and stored at −20°C until analysis. Tissue samples were homogenized by a bead-based homogenizer following the addition of deionized water to excised tissue in a 2:1 (vol/wt) ratio and stored at −20°C until analysis. Prior to analysis, plasma or homogenized tissue samples were quenched with acetonitrile (3:1, acetonitrile-plasma or tissue ratio) containing an appropriate internal standard (isotopically labeled d9-CD101 [mouse and rat] or a structural analog [dog, monkey, and chimpanzee]). Plasma and tissue homogenate concentrations (quantified against calibration standards processed the same way) were determined by reverse-phase, gradient liquid chromatography with tandem mass spectrometric detection (LC-MS/MS) using an AB-SCIEX API 3200Q/4000 mass spectrometry system. Calibration standard ranges were the following: 0.400 (lower limit of quantitation, [LLOQ]) to 200 μg/ml (CD101, mouse), 0.040 (LLOQ) to 10 μg/ml (anidulafungin, mouse), 0.002 (LLOQ) to 10 μg/ml (CD101, rat), 0.005 (LLOQ) to 10 μg/ml (anidulafungin, rat), 0.050 (LLOQ) to 10 μg/ml (CD101, dog), 0.020 (LLOQ) to 10 μg/ml (anidulafungin, dog), 0.010 (LLOQ) to 10 μg/ml (CD101, monkey), 0.001 (LLOQ) to 10 μg/ml (anidulafungin, monkey), 0.015 (LLOQ) to 10 μg/ml (CD101, chimpanzee), and 0.015 (LLOQ) to 10 μg/ml (anidulafungin, chimpanzee). When necessary, dilutions with blank matrix were made for samples that quantified above the upper limit of quantitation. The methods used in the analysis were qualified as fit for purpose: calibration standards were matrix matched with the exception that human plasma calibration standards were used to analyze chimpanzee plasma samples due to the rarity of blank chimpanzee plasma, and, for each analytical batch, triplicate calibration standards were included at the beginning, approximately in the middle, and at the end of the batch. Following analysis, quantitation was carried out by a calibration curve comprising the analyte/internal standard area ratio versus concentration. Analytical batch acceptance followed the general guidance that triplicate standards/quality controls be within ±20% for accuracy (percentage of nominal concentration) and ≤20% for precision (percent coefficient of variation).
(§2) Pharmacokinetic parameters were calculated by noncompartmental analysis using Phoenix WinNonlin (version 6.3; Pharsight, Mountain View, CA) from either individual or mean (mouse) concentration-time profiles. An unpaired t test was used to compare mean exposures from male and female rats.

Series [2] is described as follows: Chimpanzee pharmacokinetics, i.v. infusion. The format is in vivo, chimpanzees. On the procedure: A single 1-mg/kg dose of CD101 or anidulafungin was administered by i.v. infusion (1 h) to female chimpanzees (n = 2/group), and blood samples (via peripheral vein) were drawn for plasma processing at the midpoint of infusion, at the end of infusion, at 2, 4, 8, 12, 24, 48, and 72 h postdose, and on days 5, 7, and 10 postdose.
as §1, §2

Where [3] appears, read: in vivo, iv, female chimpanzees, single 1 mg/kg i.v. infusion (1 h), plasma, LC-MS/MS, noncompartmental, n = 2.

The term AUC(0-inf) denotes total exposure, with the tail of the curve extrapolated. A word on the AUC(0-t): it is the area under the concentration-time curve up to a stated or last time point. A lower AUC(0-t) goes with low exposure. One may read the Cmax as the peak of the concentration-time curve. The term Tmax denotes the time at which the peak concentration occurs. A word on the half-life: it is how long it takes for the measured level to halve. Lower therefore signals fast loss. As a reminder, the clearance is the rate of elimination divided by the concentration. On to `CCCCCOc1ccc(-c2ccc(-c3ccc(C(=O)N[C@H]4C[C@@H](O)[C@@H](OCC[N+](C)(C)C)NC(=O)[C@@H]5[C@@H](O)[C@@H](C)CN5C(=O)[C@H]([C@@H](C)O)NC(=O)[C@H]([C@H](O)[C@@H](O)c5ccc(O)cc5)NC(=O)[C@@H]5C[C@@H](O)CN5C(=O)[C@H]([C@@H](C)O)NC4=O)cc3)cc2)cc1` [CD101] ({pTerphenylCO(4''-OnC5H11)}-[Orn(4R-OH,5R-OCH2CH2NMe3+)]T[Hyp][hTyr(3S-OH,4S-OH)]T[Pro(3S-OH,4S-Me)]; lactam 1-C), for which, in series [1] (single 1 mg/kg i.p.), the AUC(0-inf) is 88.9 µg·h/mL, the AUC(0-t) worked out at 59.6 µg·h/mL, the Cmax amounted to 3970 ng/mL and the time of peak concentration (Tmax) is 1 h. In series [1] (single 1 mg/kg i.p.), this molecule showed a half-life of 71.1 h. Moreover, in series [1] (single 4 mg/kg i.p.), the AUC(0-inf) turned out to be 313 µg·h/mL, the AUC(0-t) came to 245 µg·h/mL, the peak level (Cmax) was 13600 ng/mL and the Tmax stood at 1 h. In series [1] (single 4 mg/kg i.p.), the half-life was 44.5 h. Further, in series [1] (single 16 mg/kg i.p.), the AUC(0-inf) was 1200 µg·h/mL, the AUC(0-t) amounted to 902 µg·h/mL, the Cmax came to 52000 ng/mL and the Tmax is 1.67 h. Further, in series [1] (single 16 mg/kg i.p.), the half-life was 60.8 h. Further, the “clearance fold lower than anidulafungin” value in series [2] (chimpanzee, 1 mg/kg i.v. infusion, 0.06 versus 0.42 ml/min/kg, n = 2/group) was “over 7 fold”. The “t1/2 fold longer than anidulafungin” value in series [2] (chimpanzee, 1 mg/kg i.v. infusion, 81 versus 30 h, n = 2/group) worked out at 2.7 fold. In series [2] (setting [3]), the AUC(0-inf) turned out to be 302 µg·h/mL, the AUC(0-t) was determined as 290 µg·h/mL, the highest concentration (Cmax) was determined as 7150 ng/mL and the Tmax was determined as 1 h. The half-life in series [2] (setting [3]) was 80.7 h. In addition, the clearance in series [2] (in vivo, iv, female chimpanzees, single 1 mg/kg i.v. infusion (1 h), plasma, LC-MS/MS, noncompartmental, n = 2, read-out: CL (clearance)) stood at 3.41 mL/h/kg. In addition, the Vd in series [2] (in vivo, iv, female chimpanzees, single 1 mg/kg i.v. infusion (1 h), plasma, LC-MS/MS, noncompartmental, n = 2, read-out: Vss (volume of distribution at steady state)) amounted to 0.4 L/kg.
